Results: patent US10507212B2, “Method for use of homopiperazinium compounds in the treatment of cancer” (UNIVERSITÉ LAVAL, priority 2014, dated 2019)
Where a name gives a salt, the structure may show the parent alone. Read-outs that look alike come from different tables or passages of the source. Each block holds one molecule with its values, some of them ahead of it.

Experiments:
[1] = tested on: A549 adenocarcinoma cell line; experiment: Cell proliferation assay, A549 (MTT)
Method: (§1) In vitro experiments were conducted on four cancer cell lines: the A549 adenocarcinoma cell line, the H520 squamous cell carcinoma the H82 small cell lung carcinoma and Calu 3 lung adenocarcinoma. The A549 tumor cells, were plated at a density of 1.5×10^4 cells per mL and let to adhere on 96-well microplates in F12K cell culture medium enriched with 10% fetal calf serum (FCS). The H520, H82 and Calu 3 tumor cells were plated at a density of 5×10^4 cells per mL in RPMI+10% FCS. After 24 h in culture, the medium was changed and cells were exposed to ASM-024 at concentrations ranging from 10^−7M to 10^−3M (FIGS. 1A-1C). After 3 and 6 days in culture, cell growth was quantified using the MTT colorimetric assay (M2128, Sigma) at 575-690 nm or the Cell Titer fluorescence assay (G8080, Promega) at 560/590 nm.
(§2) In an another set of experiments, a series of 16 other homopiperazinium compounds, in addition to ASM-024, were tested for their anti-proliferative effect on the four tumor cell lines described above after up to 6 days in culture at concentrations of 10^-7M to 10^-3M. (FIGS. 4A-4E) Cell growth was quantified using the MTT colorimetric assay for the A-549, H520 and Calu 3 cell lines and the CellTiter Fluorescence assay.for the H82 tumor cell line These are established method of determining viable cell number in proliferation studies.

[2] = tested on: H520 squamous cell carcinoma; experiment: Cell proliferation assay, H520 (MTT); type: cell-based
Method: as §1, §2

[3] = tested on: H82 small cell lung carcinoma; experiment: Cell proliferation assay, H82 (CellTiter fluorescence); type: cell-based; settings: for inhibition at 300 µM / inhibition at 100 µM / IC50: Homo sapiens; for inhibition at 300 µM / inhibition at 100 µM: read-out: % Inhibition of Cell Growth at day 3 compared to vehicle-treated cells
Method: as §1, §2

[4] = tested on: Calu 3 lung adenocarcinoma; experiment: Cell proliferation assay, Calu 3 (MTT); type: cell-based; settings: Homo sapiens
Method: as §1, §2

[5] = Homo sapiens, A549, 72 h, read-out: IC50 Day 3, A549, day 3 in culture
[6] = Homo sapiens, A549, 144 h, read-out: IC50 Day 6, A549, day 6 in culture
[7] = Homo sapiens, NCI-H520, 72 h, H520, day 3 in culture, read-out: IC50 Day 3
[8] = Homo sapiens, NCI-H520, 144 h, H520, day 6 in culture, read-out: IC50 Day 6
[9] = NCI-H82, 72 h, H82, day 3, 3 × 10^−4M
[10] = NCI-H82, 72 h, H82, day 3, 10^−4M
[11] = Homo sapiens, NCI-H520, 72 h, read-out: IC50 Day 3, H520, day 3 in culture
[12] = Homo sapiens, NCI-H520, 144 h, read-out: IC50 Day 6, H520, day 6 in culture
[13] = NCI-H82, 72 h, H82, day 3 in culture, read-out: IC50 Day 3
[14] = NCI-H82, 144 h, H82, day 6 in culture, read-out: IC50 Day 6
[15] = 72 h, Calu 3, day 3 in culture, read-out: IC50 Day 3
[16] = 144 h, Calu 3, day 6 in culture, read-out: IC50 Day 6
[17] = NCI-H82, 72 h, read-out: IC50 Day 3
[18] = NCI-H82, 144 h, read-out: IC50 Day 6
[19] = read-out: IC50 Day 3, A549, day 3 in culture
[20] = read-out: IC50 Day 6, A549, day 6 in culture
[21] = H520, day 3 in culture, read-out: IC50 Day 3
[22] = H520, day 6 in culture, read-out: IC50 Day 6

IC50 [1, 5]: 136 ± 39 µM
IC50 [1, 6]: 82 ± 32 µM
IC50 [2, 7]: > 1000 µM
IC50 [2, 8]: 536 ± 101 µM
Structure (SMILES): CCC[N+]1(C)CCCN(c2ccccn2)CC1 (centres unmarked) [ASM-018, 1-Methyl-1-propyl-4-(2-pyridyl)-homopiperazinium Iodide]
inhibition at 300 µM [3, 9]: 35%
inhibition at 100 µM [3, 10]: 15%

Structure (SMILES): C[N+]1(C)CCCN(c2ccccc2)CC1.[I-] [ASM-002, 1,1-dimethyl-4-phenylhomopiperazinium iodide]
IC50 [1, 5]: 40 ± 15 µM
IC50 [1, 6]: 38 ± 12 µM
IC50 [2, 11]: 323 ± 60 µM
IC50 [2, 12]: 170 ± 23 µM
inhibition at 100 µM ([3]; NCI-H82, 72 h): -15%
inhibition at 300 µM ([3]; NCI-H82, 72 h): 31%
melting point: 158 to 160 °C

IC50 [1, 5]: 81 ± 74 µM
IC50 [1, 6]: 42 ± 34 µM
IC50 [2, 7]: > 700 µM
IC50 [2, 8]: 288 ± 61 µM
IC50 [3, 13]: 331 µM
IC50 [3, 14]: 252 µM
IC50 [4, 15]: 452 µM
IC50 [4, 16]: 109 µM
Structure (SMILES): CC[N+]1(CC)CCCN(c2ccc(F)cc2)CC1 [ASM-049, 1,1-Diethyl-4-(4-fluorophenyl)-homopiperazinium Tosylate]

melting point: 167.5 to 168.7 °C
Structure (SMILES): CC[N+]1(C)CCCN(c2ccccc2)CC1.[I-] (centres unmarked) (hydrate or solvate) [ASM-055, 1-Ethyl-1-Methyl-4-(phenyl)-homopiperazinium Tosylate]

Structure (SMILES): C[N+]1(C)CCCN(c2ccc(C(F)(F)F)cc2)CC1 (as salt: iodide) [ASM-071, 4-Dimethyl-1-(4-trifluorophenyl)-homopiperazinium Iodide]
melting point: 224.3 to 225.4 °C

IC50 [1, 5]: 37 µM
IC50 [1, 6]: 15 µM
IC50 [2, 7]: 322 µM
IC50 [2, 8]: 169 µM
IC50 [3, 13]: 246 µM
IC50 [3, 14]: 176 µM
IC50 [4, 15]: 276 µM
IC50 [4, 16]: 86 µM
Structure (SMILES): CC[N+]1(CC)CCCN(c2ccc(Cl)cc2)CC1 [ASM-048, 1,1-Diethyl-4-(4-chlorophenyl)-homopiperazinium Tosylate]

Structure (SMILES): C[N+]1(C)CCCN(c2ccc(C(F)(F)F)cc2)CC1 (as salt: tosylate) [ASM-058, 1,1-Dimethyl-4-(4-trifluoromethylphenyl)-homopiperazinium Tosylate]
melting point: 212.6 to 213.4 °C

Structure (SMILES): CC[N+]1(CC)CCCN(c2ccc(O)cc2)CC1 [ASM-073, 1,1-Diethyl-4-(phenyl-4-hydroxy)-homopiperazinium tosylate]
IC50 [1, 5]: 119 ± 49 µM
IC50 [1, 6]: 161 ± 82 µM
IC50 [2, 11]: 187 ± 28 µM
IC50 [2, 12]: 148 ± 14 µM
inhibition at 100 µM ([3]; NCI-H82, 72 h): 100%
inhibition at 300 µM ([3]; NCI-H82, 72 h): 100%

Structure (SMILES): Cc1cccc(N2CCC[N+](C)(C)CC2)c1 [ASM-068, 4-Dimethyl-1-(3-methylphenyl)-homopiperazinium Tosylate]
IC50 [1, 5]: 36 ± 17 µM
IC50 [1, 6]: 20 ± 16 µM
IC50 [2, 11]: 580 ± 85 µM
IC50 [2, 12]: 233 ± 31 µM
IC50 [3, 17]: 298 µM
IC50 [3, 18]: 179 µM
IC50 ([4]; Calu-3, 72 h, read-out: IC50 Day 3): > 1000 µM
IC50 ([4]; Calu-3, 144 h, read-out: IC50 Day 6): 52 µM

IC50 [1, 5]: 146 ± 92 µM
IC50 [1, 6]: 112 ± 96 µM
IC50 [2, 7]: > 1000 µM
IC50 [2, 8]: 634 ± 124 µM
Structure (SMILES): CC[N+]1(CC)CCCN(c2ccccn2)CC1 [ASM-037, 1,1-Diethyl-4-(2-pyridyl)-homopiperazinium Tosylate]
inhibition at 300 µM [3, 9]: 29%
inhibition at 100 µM [3, 10]: 10%

Structure (SMILES): CC[N+]1(CC)CCCN(c2ccc(O)cc2)CC1 (as salt: tosylate) [ASM-073, 1,1-Diethyl-4-(phenyl-4-hydroxy)-homopiperazinium tosylate]
melting point: 144 to 145.5 °C

IC50 [1, 19]: 46 ± 7 µM
IC50 [1, 20]: 45 ± 32 µM
IC50 [2, 21]: > 700 µM
IC50 [2, 22]: 387 ± 178 µM
Structure (SMILES): CC[N+]1(CC)CCCN(c2ccccc2)CC1.[Cl-] [ASM-022, 1,1-Diethyl-4-phenyl-homopiperazinium Chloride]
% Inhibition of Cell Growth at day 3 compared to vehicle-treated cells ([3]; H82, day 3, 3 × 10^−4M): 55%
% Inhibition of Cell Growth at day 3 compared to vehicle-treated cells ([3]; H82, day 3, 10^−4M): 23%

Structure (SMILES): C[N+]1(C)CCCN(c2ccc(C(F)(F)F)cc2)CC1 [ASM-058, 1,1-Dimethyl-4-(4-trifluoromethylphenyl)-homopiperazinium Tosylate]
IC50 [1, 5]: 22 ± 10 µM
IC50 [1, 6]: 27 ± 26 µM
IC50 [2, 11]: 356 ± 143 µM
IC50 [2, 12]: 210 ± 82 µM
IC50 [3, 17]: 472 µM
IC50 [3, 18]: 299 µM

Structure (SMILES): CC(C)[N+]1(C)[C@@H]2CC[C@H]1C[C@@H](OC(=O)C(CO)c1ccccc1)C2 (some centres unmarked) [ipratropium, reference compound]
cytotoxic effect ([1]; A549, at 1000 μM): cytotoxic effect

IC50 [1, 5]: 60 ± 26 µM
IC50 [1, 6]: 28 ± 15 µM
IC50 [2, 7]: 622 ± 211 µM
IC50 [2, 8]: 272 ± 65 µM
Structure (SMILES): CC[N+]1(C)CCCN(c2ccccc2)CC1 (centres unmarked) [ASM-055, 1-Ethyl-1-Methyl-4-(phenyl)-homopiperazinium Tosylate]
inhibition at 300 µM [3, 9]: 66%
inhibition at 100 µM [3, 10]: 36%

Structure (SMILES): C[N+]1(C)[C@@H]2C[C@@H](OC(=O)C(O)(c3cccs3)c3cccs3)C[C@H]1[C@@H]1O[C@@H]12 [Tiotropium, reference compound]
cell proliferation / cell growth inhibition (in words) ([1]; A549, day 3 and day 6, text on figures): no significant cell growth inhibition
IC50 (in words) ([1]; A549, cell line not given): No IC50 could be calculated
cell proliferation / cell growth inhibition (in words) ([2]; H520, day 3 and day 6, text on figures): no significant cell growth inhibition
IC50 (in words) ([2]; H520, cell line not given): No IC50 could be calculated
cell proliferation / cell growth inhibition (in words) ([3]; H82, day 3 and day 6, text on figures): no significant cell growth inhibition
IC50 (in words) ([3]; H82, cell line not given): No IC50 could be calculated

Structure (SMILES): CC[N+]1(C)CCCN(c2ccccn2)CC1 (centres unmarked) [ASM-017, 1-Ethyl-1-methyl-4-(2-pyridyl)-homopiperazinium Iodide]
IC50 [1, 5]: 89 ± 13 µM
IC50 [1, 6]: 65 ± 25 µM
IC50 [2, 11]: 953 ± 39 µM
IC50 [2, 12]: 469 ± 163 µM
inhibition at 100 µM ([3]; NCI-H82, 72 h): -26%
inhibition at 300 µM ([3]; NCI-H82, 72 h): -6%

IC50 [1, 5]: 90 ± 15 µM
IC50 [1, 6]: 58 ± 22 µM
IC50 [2, 7]: 415 ± 212 µM
IC50 [2, 8]: 180 ± 92 µM
Structure (SMILES): C[N+]1(C)CCCN(c2ccccn2)CC1 [ASM-016, 1,1-Dimethyl-4-(2-pyridyl)-homopiperazinium Iodide]
inhibition at 300 µM [3, 9]: -6%
inhibition at 100 µM [3, 10]: -22%

Structure (SMILES): C[N+]1(C)CCCN(c2ccc(C(F)(F)F)cc2)CC1 [ASM-071, 4-Dimethyl-1-(4-trifluorophenyl)-homopiperazinium Iodide]
IC50 [1, 19]: 25 ± 15 µM
IC50 [1, 20]: 18 ± 9 µM
IC50 ([2]; read-out: IC50 Day 3, H520, day 3 in culture): 523 ± 292 µM
IC50 ([2]; read-out: IC50 Day 6, H520, day 6 in culture): 235 ± 179 µM

Structure (SMILES): Cc1cccc(N2CCC[N+](C)(C)CC2)c1 (as salt: tosylate) [ASM-068, 4-Dimethyl-1-(3-methylphenyl)-homopiperazinium Tosylate]
melting point: 161.6 to 162.5 °C

IC50 [1, 19]: 51 ± 6 µM
IC50 [1, 20]: 48 ± 25 µM
IC50 [2, 21]: 892 ± 98 µM
IC50 [2, 22]: 396 ± 147 µM
Structure (SMILES): CC[N+]1(CC)CCCN(c2ccccc2)CC1.[I-] [ASM-009, 1,1-Diethyl-4-phenyl-homopiperazinium Iodide]
% Inhibition of Cell Growth at day 3 compared to vehicle-treated cells ([3]; H82, day 3, 3 × 10^−4M): 35%
% Inhibition of Cell Growth at day 3 compared to vehicle-treated cells ([3]; H82, day 3, 10^−4M): −12%

IC50 [1, 5]: 45 ± 12 µM
IC50 [1, 6]: 51 ± 39 µM
IC50 [2, 21]: > 1000 µM
IC50 [2, 8]: 369 ± 171 µM
Structure (SMILES): CC[N+]1(CC)CCCN(c2ccccc2)CC1.[Br-] [ASM-021, 1,1-Diethyl-4-phenyl-homopiperazinium Bromide]
% Inhibition of Cell Growth at day 3 compared to vehicle-treated cells ([3]; H82, day 3, 3 × 10^−4M): 59%
% Inhibition of Cell Growth at day 3 compared to vehicle-treated cells ([3]; H82, day 3, 10^−4M): 13%
